Experimental data taken from paper PMC10398685 (ACS Omega, 2023).
Like-named read-outs stand apart in the source and are kept apart here.

What was measured:
[1] = target: SARS-CoV-2 nsp14 7-N MTase (Severe acute respiratory syndrome coronavirus 2, UniProt P0DTD1); assay: biochemical; conditions: Echo MS assay, 20 nM nsp14, 4 μM SAM, 4 μM GpppA, duplicates
[2] = test system: SARS-CoV-2; assay: microbe, parasite or virus in culture; format: cell-based; conditions: Severe acute respiratory syndrome coronavirus 2, 72 h; Calu-3 cells, MOI~0.03, 3 days incubation, CPE by XTT; read-out: EC50 (anti-SARS-CoV-2 activity)
[3] = test system: SARS-CoV-2; assay: microbe, parasite or virus in culture; format: cell-based; conditions: Severe acute respiratory syndrome coronavirus 2, Vero C1008, 72 h; VeroE6 cells, MOI~0.03, 3 days incubation, CPE by XTT; read-out: EC50 (anti-SARS-CoV-2 activity)
[4] = in vitro; conditions: human
[5] = in vitro; conditions: African green monkey
[6] = in the same cell type; cited from earlier work
[7] = Cytotoxicity (XTT) in Calu-3 cells; conditions: human
[8] = Cytotoxicity (XTT) in Vero E6 cells; conditions: African green monkey

| SMILES | IC50 [1] [nM] | EC50 [2] [µM] | EC50 [3] [µM] | CC50 at 3 days [4] [µM] | CC50 at 3 days [5] [µM] | Reported intracellular uptake, free tenofovir [6] [µM] | Reported intracellular uptake, prodrug [6] [µM] | CC50 at 3 days [7] [µM] | CC50 at 3 days [8] [µM] |
| --- | --- | --- | --- | --- | --- | --- | --- | --- | --- |
| COc1ccc(S(=O)(=O)N(C)C[C@H]2O[C@@H](n3cnc4c(N)ncnc43)[C@H](O)[C@@H]2O)cc1C#N [Compound 3b] | 128 ± 14.4 |  |  |  |  |  |  |  |  |
| CCN(C[C@H]1O[C@@H](n2cnc3c(N)ncnc32)[C@H](O)[C@@H]1O)S(=O)(=O)c1ccc(OC)c(C#N)c1 [Compound 3a, reference compound] | 195 ± 25.3 | > 100 | > 100 | > 100 | > 100 |  |  |  |  |
| CCN(C[C@H]1O[C@@H](n2cc(C#Cc3ccc(O)nc3)c3c(N)ncnc32)[C@H](O)[C@@H]1O)S(=O)(=O)c1ccc(OC)c(C#N)c1 [Compound 12f] | 65 ± 9.2 | > 100 | > 100 | > 100 | > 100 |  |  |  |  |
| CCN(C[C@H]1O[C@@H](n2cc(C#Cc3ncc[nH]3)c3c(N)ncnc32)[C@H](O)[C@@H]1O)S(=O)(=O)c1ccc(OC)c(C#N)c1 [Compound 12b] | 34 ± 4.9 | > 100 | > 100 | > 100 | > 100 |  |  |  |  |
| Nc1ncnc2c1c(C#Cc1cnc3ccccc3c1)cn2[C@@H]1O[C@H](CSCC[C@H](N)C(=O)O)[C@@H](O)[C@H]1O [TO507, reference compound] | 68 ± 12.1 | > 100 | > 100 | > 100 | > 100 |  |  |  |  |
| CC(C)OC(=O)[C@H](C)N[P@](=O)(CO[C@H](C)Cn1cnc2c(N)ncnc21)Oc1ccccc1 [tenofovir alafenamide] |  |  |  |  |  | 67 | 0.9 |  |  |
| CCN(C[C@H]1O[C@@H](n2cc(C#Cc3ccc(C(=O)O)cc3)c3c(N)ncnc32)[C@H](O)[C@@H]1O)S(=O)(=O)c1ccc(OC)c(C#N)c1 [Compound 12p] | 84 ± 9.4 | > 100 | > 100 | > 100 | > 100 |  |  |  |  |
| CCN(C[C@H]1O[C@@H](n2cc(C#Cc3ccccc3)c3c(N)ncnc32)[C@H](O)[C@@H]1O)S(=O)(=O)c1ccc(OC)c(C#N)c1 [Compound 12c] | 62 ± 12.4 | > 100 | > 100 | > 100 | > 100 |  |  |  |  |
| CCN(C[C@H]1O[C@@H](n2cc(C#Cc3cccc4ccccc34)c3c(N)ncnc32)[C@H](O)[C@@H]1O)S(=O)(=O)c1ccc(OC)c(C#N)c1 [Compound 12d] | 261 ± 51.6 | > 100 | > 100 | > 100 | > 100 |  |  |  |  |
| CCN(C[C@H]1O[C@@H](n2cc(C#Cc3c[nH]c(=O)[nH]c3=O)c3c(N)ncnc32)[C@H](O)[C@@H]1O)S(=O)(=O)c1ccc(OC)c(C#N)c1 [Compound 12j] | 70 ± 8.1 | > 100 | > 100 | > 100 | > 100 |  |  |  |  |
| COc1ccc(S(=O)(=O)N(C[C@H]2O[C@@H](n3cnc4c(N)ncnc43)[C@H](O)[C@@H]2O)C(C)C)cc1C#N [Compound 3c] | 624 ± 89.1 |  |  |  |  |  |  |  |  |
| CCN(C[C@H]1O[C@@H](n2cc(C#Cc3c[nH]c(=O)nc3N)c3c(N)ncnc32)[C@H](O)[C@@H]1O)S(=O)(=O)c1ccc(OC)c(C#N)c1 [Compound 12k] | 88 ± 11.2 | > 100 | > 100 | > 100 | > 100 |  |  |  |  |
| COc1ccc(S(=O)(=O)N(C[C@H]2O[C@@H](n3cnc4c(N)ncnc43)[C@H](O)[C@@H]2O)C2CCCC2)cc1C#N [Compound 3d] | 2380 ± 278 |  |  |  |  |  |  |  |  |
| CCN(C[C@H]1O[C@@H](n2cc(C#Cc3cncnc3)c3c(N)ncnc32)[C@H](O)[C@@H]1O)S(=O)(=O)c1ccc(OC)c(C#N)c1 [Compound 12m] | 51 ± 6.2 | > 100 | > 100 | > 100 | > 100 |  |  |  |  |
| CCN(C[C@H]1O[C@@H](n2cc(C#Cc3cnc(N)nc3)c3c(N)ncnc32)[C@H](O)[C@@H]1O)S(=O)(=O)c1ccc(OC)c(C#N)c1 [Compound 12i] | 38 ± 4.2 | > 100 | > 100 | > 100 | > 100 |  |  |  |  |
| CCN(C[C@H]1O[C@@H](n2cc(C#Cc3ccncc3)c3c(N)ncnc32)[C@H](O)[C@@H]1O)S(=O)(=O)c1ccc(OC)c(C#N)c1 [Compound 12n] | 41 ± 7.1 | > 100 | > 100 | > 100 | > 100 |  |  |  |  |
| CCC(CC)COC(=O)[C@H](C)N[P@](=O)(OC[C@H]1O[C@@](C#N)(c2ccc3c(N)ncnn23)[C@H](O)[C@@H]1O)Oc1ccccc1 [Remdesivir, reference compound] |  | 0.26 | 1.2 |  |  |  |  | > 50 | > 50 |
| CCN(C[C@H]1O[C@@H](n2cc(C#Cc3cnc(O)nc3)c3c(N)ncnc32)[C@H](O)[C@@H]1O)S(=O)(=O)c1ccc(OC)c(C#N)c1 [Compound 12g] | 75 ± 8.3 | > 100 | > 100 | > 100 | > 100 |  |  |  |  |
